According to patent publication US20230302031A1, “Modulators Of Purinergic Receptors and Related Immune Checkpoint For Treating Acute Respiratory Distress Syndrome” (priority 2020, published 2023):
Read-outs that look alike come from different tables or passages of the source.

Tests used:
ACE2-A549 cells = conditions: ACE2-A549, 72 hours, MTT; PPADS and OxATP at 100 μM; BzATP indicated concentrations
ACE2 [1] = assay type: cell-based; conditions: ACE2-A549, 24 hours; same concentrations; FIG. 14B
SARS-CoV-2 [2] = assay type: cell-based; conditions: FIG. 7K; for intracellular expression of Spike: Vero E6, 24 hours, 50 μM PPADS, 100 μM OxATP, 100 μM BzATP; for ACE2 expression in response to SARS-CoV-2 infection: western blot
ACE2 [3] = assay type: cell-based, African green monkey; conditions: Vero E6, 24 hours; 500 μM UTP, 100 μM Diquafosol, 5 μM Denufosol, 50 μM PPADS, 100 μM OxATP, 100 μM BzATP; FIG. 14A
SARS-CoV-2 [4] = assay: SARS-CoV-2 replication in Vero E6 cells (RdRp and E mRNA, quantitative RT-PCR); assay type: cell-based; conditions: 500 μM UTP, 100 μM Diquafosol, 5 μM Denufosol; for amount of RdRp and E mRNA (viral replication): Vero E6, 16 and 24 hours of infection, 50 μM PPADS, 100 μM BzATP, FIG. 2; for replication of SARS-CoV-2 and/or associated cytopathogenic effects: Vero E6, RdRp and E mRNA, Spike-positive cells, viability, FIG. 7D, 7E, 7I-7K, 12A, 12B
Vero E6 cells = conditions: Vero E6, 72 hours, MTT; PPADS and OxATP at 100 μM; BzATP indicated concentrations
P2Y2-NLRP3 interaction = molecular target: T1, P2Y2-NLRP3 interaction (Homo sapiens, UniProt P41231); assay: P2Y2-NLRP3 proximity ligation assay in PMA-primed THP1; assay type: cell-based; conditions: 100 μM, 96 hours; FIG. 10A
T1 construct: Frequency of P2Y2-NLRP3 PLA+ cells detected after treatment of PMA-primed THP1 with 100 μM AR-C118925XX; endogenous in cells; host or cells: PMA-primed THP1 macrophages (ATCC)

SARS-CoV-2 [5] = assay type: cell-based; conditions: Vero E6, 72 hours infection, MOI 1-2, indicated concentrations, MTT
SARS-CoV-2 [6] = assay: SARS-CoV-2 replication in ACE2-A549 cells (RdRp and E mRNA, Spike expression); assay type: cell-based; conditions: ACE2-A549, 48 hours; 500 μM UTP, 100 μM Diquafosol, 5 μM Denufosol; FIG. 7F-H
[7] = test system: Bleomycin-induced lung inflammation; assay: Mouse model of bleomycin-induced lung inflammation; assay type: in vivo, C57BL/6 mice; conditions: 300 μg intraperitoneally every 3 days
[8] = test system: PMA-treated THP1 macrophages; assay: IL-1β release from LPS+ATP-stimulated PMA-THP1 macrophages (western blot/ELISA); assay type: cell-based, human; conditions: for IL-1β release: 100 μM compound, 10 ng/mL LPS 3 hours + 5 mM ATP 6 hours, FIG. 6E, 6I
Method: (§1) Human THP-1 cells were cultured in RPMI 1640 media, supplemented with 10% FBS and differentiated by treatment for 3 hours with 100 nM phorbol-12-myristate-13-acetate (PMA, Invivogen). After 2 days, macrophage THP-1 cells were stimulated first 3 hours with ultrapure LPS from E. coli (10 ng/ml, LPS) and then stimulated for 6 hours with ATP (5 mM, Sigma) or treated with 50 ng or 20 ng of IFNg during 24 or 12 hours as indicated. Then, supernatants and cells were collected for western blot analysis.
(§2) Cells or supernatant were lysed in appropriated buffer (250 mM NaCl, 0.1% NP-40, 5 mM EDTA, 10 mM Na3VO4, 10 mM NaF, 5 mM DTT, 3 mM Na4P2O7, 1 mM EGTA, 10 mM Glycerol phosphate, 10 mM Tris-Hcl (pH=7.5) and the protease and phosphatase inhibitors (Roche)). Equal amount of supernatant or 10-40 μg of protein extracts were run on 4-12% or 10% SDS-PAGE and transferred at 4° C. onto a nitrocellulose membrane (0.2 Micron). After incubation for 2 hours at room temperature with 5% nonfat milk or BSA (Bovine Serum Albumine) in Tris-buffered saline and 0.1% Tween 20 (TBS-Tween), membranes were incubated with primary antibody at 4° C. overnight. […] The primary antibodies against. […] Western blots shown are representative of at least of three independent experiments.
Plasma serum from P2y2^+/+ and P2y2^−/− mice and supernatants harvested from PMA-stimulated THP1 macrophages that were depleted or not for P2Y2 or NLRP3, and/or stimulated with 10 ng/mL LPS during 3 hours and 5 mM ATP during 6 hours or with 20 ng/mL IFNγ, in presence or in absence of 100 μM Suramin, 100 μM OxATP, 100 μM Kaempferol or 100 μM Diquafosol at indicated times were analyzed using western blot or ELISA for IL-1β (Ebioscience) and IL-10 (BD) according to the manufacturers' instructions.

[9] = test system: PMA-treated THP1 macrophages; assay: IRF5 expression in IFNγ-stimulated PMA-THP1 macrophages (western blot); assay type: cell-based, human
Method: as §1, §2
Total cellular proteins were extracted and lysed in appropriated buffer containing 250 mM NaCl, 0.1% NP-40, 5 mM EDTA. 10 mM Na3VO4, 10 mM NaF, 5 mM DTT, 3 mM Na4P2O7, 1 mM EGTA, 10 mM Glycerol phosphate, 10 mM Tris-HCl (pH=7.5) and the protease and phosphatase inhibitors (Roche)). Then, 10-40 μg of protein extracts were run on 4-12% or 12% SDS-PAGE and transferred at 4° C. onto a nitrocellulose membrane (0.2 Micron). After 2 hours saturation at room temperature with 5% nonfat milk or BSA (Bovine Serum Albumin) in Tris-buffered saline and 0.1% Tween 20 (TBS-Tween), nitrocellulose membranes were incubated with primary antibody at 4° C. overnight. […] The primary antibodies against P2Y2 (#APR-010) and P2X7 (#APR-004) were obtained from Alomone laboratories. […]

SARS-CoV-2 [10] = assay type: cell-based; conditions: Vero E6, 24 hours, 50 μM PPADS, 100 μM OxATP

T1 sequence (P41231 whole entry): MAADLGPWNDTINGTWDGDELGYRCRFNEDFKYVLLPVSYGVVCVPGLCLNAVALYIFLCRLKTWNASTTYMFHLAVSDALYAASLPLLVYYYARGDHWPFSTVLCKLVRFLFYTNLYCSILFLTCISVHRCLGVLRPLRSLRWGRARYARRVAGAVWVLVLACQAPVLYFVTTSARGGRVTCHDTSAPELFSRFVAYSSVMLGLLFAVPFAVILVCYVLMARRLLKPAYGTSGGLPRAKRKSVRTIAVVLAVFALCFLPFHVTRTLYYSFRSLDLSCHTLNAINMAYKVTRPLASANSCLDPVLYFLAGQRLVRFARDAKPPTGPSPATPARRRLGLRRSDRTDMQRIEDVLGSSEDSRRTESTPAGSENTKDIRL

2′(3′)-O-(4-Benzoylbenzoyl) adenosine 5′-triphosphate [BzATP]
viability of uninfected cells (ACE2-A549 cells): did not show a significant impact | ACE2 membrane expression (ACE2 [1]): did not change | intracellular expression of Spike (SARS-CoV-2 [2]): increase of intracellular Spike expression levels | entry of SARS-CoV2 into host cells (SARS-CoV-2 [2]; Vero E6): significantly increased the entry of SARS-CoV2 into host cells | ACE2 expression in response to SARS-CoV-2 infection (SARS-CoV-2 [2]): reduces ACE2 expression levels | ACE2 membrane expression (ACE2 [3]): did not change | amount of RdRp and E mRNA (viral replication) (SARS-CoV-2 [4]): strongly enhanced viral replication | viability of uninfected cells (Vero E6 cells): did not show a significant impact

Cc1ccc2c(c1)C=Cc1cc(C)ccc1C2c1cn(Cc2ccc(C(=O)Nc3nn[nH]n3)o2)c(=O)[nH]c1=S [AR-C118925XX]
P2Y2-NLRP3 interaction (frequency of PLA+ cells) (P2Y2-NLRP3 interaction): enhanced the P2Y2-NLRP3 interaction

Nc1ccn([C@H]2C[C@H](O)[C@@H](COP(=O)(O)OP(=O)(O)OP(=O)(O)OP(=O)(O)OC[C@H]3O[C@@H](n4ccc(=O)[nH]c4=O)[C@H](O)[C@@H]3O)O2)c(=O)n1 [Denufosol]
ACE2 membrane expression (ACE2 [1]): did not change | ACE2 membrane expression (ACE2 [3]): did not change | amount of RdRp and E mRNA (viral replication) (SARS-CoV-2 [4]): strongly reduced the amount of RdRp and E mRNA | replication of SARS-CoV-2 and/or associated cytopathogenic effects (SARS-CoV-2 [4]): strongly blocked the replication of SARS-CoV-2 and/or reduced associated cytopathogenic effects | cytopathogenicity / cytopathogenic effects of SARS-CoV-2 (SARS-CoV-2 [5]): exhibited inhibitory effects on cytopathogenicity | replication of SARS-CoV-2 and/or associated cytopathogenic effects (SARS-CoV-2 [6]): strongly blocked the replication of SARS-CoV-2 and/or reduced associated cytopathogenic effects

O=c1ccn([C@@H]2O[C@H](COP(=O)(O)OP(=O)(O)OP(=O)(O)OP(=O)(O)OC[C@H]3O[C@@H](n4ccc(=O)[nH]c4=O)[C@H](O)[C@@H]3O)[C@@H](O)[C@H]2O)c(=O)[nH]1 [Diquafosol]
ACE2 membrane expression (ACE2 [1]): did not change | Bleomycin-induced lung inflammation ([7]; 50 UI bleomycin intratracheal, FIG. 17): abolishes Bleomycin-induced lung inflammation | lung lesions (CT scan) ([7]; day 20, FIG. 17A): reduces lung lesions induced by bleomycin treatment | ACE2 expression in response to SARS-CoV-2 infection (SARS-CoV-2 [2]): repressed ACE2 down regulation | ACE2 membrane expression (ACE2 [3]): did not change | amount of RdRp and E mRNA (viral replication) (SARS-CoV-2 [4]): strongly reduced the amount of RdRp and E mRNA | replication of SARS-CoV-2 and/or associated cytopathogenic effects (SARS-CoV-2 [4]): strongly blocked the replication of SARS-CoV-2 and/or reduced associated cytopathogenic effects | IL-1β release [8]: impaired IL-1β release | release of IL-1β in supernatant ([8]; indicated concentrations, 12 hours, LPS+ATP, FIG. 1B): impaired the release of IL-1β | IFNγ-mediated increase expression of IRF5 ([9]; PMA-THP1 macrophages, FIG. 6P): impaired IFNγ-mediated increase expression of IFN regulatory factor 5 (IRF5) | IRF5 expression ([9]; indicated concentrations, 20 ng IFNγ 12 hours, FIG. 1D): confirmed | cytopathogenicity / cytopathogenic effects of SARS-CoV-2 (SARS-CoV-2 [5]): exhibited inhibitory effects on cytopathogenicity | replication of SARS-CoV-2 and/or associated cytopathogenic effects (SARS-CoV-2 [6]): strongly blocked the replication of SARS-CoV-2 and/or reduced associated cytopathogenic effects

O=c1ccn([C@@H]2O[C@H](COP(=O)(O)OP(=O)(O)OP(=O)(O)OP(=O)(O)Oc3ccccc3)[C@@H](O)[C@H]2O)c(=O)[nH]1 [MRS2768]
release of IL-1β in supernatant ([8]; 50 μM, 1 hour pretreatment, 10 ng/ml LPS 3 hours + 5 mM ATP 6 hours, FIG. 1A): strongly inhibited the release of IL-1β

Nc1ncnc2c1ncn2[C@@H](C=O)O[C@@H](C=O)COP(=O)(O)OP(=O)(O)OP(=O)(O)O [OxATP, oxidized ATP]
frequency of Spike-positive cells (SARS-CoV-2 [10]): reduced the frequency of Spike-positive cells | viability of uninfected cells (ACE2-A549 cells): partially affected viability | ACE2 membrane expression (ACE2 [1]): did not change | intracellular expression of Spike (SARS-CoV-2 [2]): reduced | ACE2 expression in response to SARS-CoV-2 infection (SARS-CoV-2 [2]): repressed ACE2 down regulation | ACE2 membrane expression (ACE2 [3]): did not change | IL-1β release [8]: reduced IL-1β release | viability of uninfected cells (Vero E6 cells): partially affected viability | cytopathogenicity / cytopathogenic effects of SARS-CoV-2 (SARS-CoV-2 [5]): reduced

Cc1nc(N=Nc2ccc(S(=O)(=O)O)cc2S(=O)(=O)O)c(COP(=O)(O)O)c(C=O)c1O [PPADS, pyridoxal-phosphate-6-azopheny-2′,4′-disulfonate]
frequency of Spike-positive cells (SARS-CoV-2 [10]): reduced the frequency of Spike-positive cells | viability of uninfected cells (ACE2-A549 cells): partially affected viability | ACE2 membrane expression (ACE2 [1]): did not change | intracellular expression of Spike (SARS-CoV-2 [2]): reduced | ACE2 membrane expression (ACE2 [3]): did not change | amount of RdRp and E mRNA (viral replication) (SARS-CoV-2 [4]): repressed RdRp and E mRNA expression | viability of uninfected cells (Vero E6 cells): partially affected viability | cytopathogenicity / cytopathogenic effects of SARS-CoV-2 (SARS-CoV-2 [5]): reduced

Cc1ccc(C(=O)Nc2ccc(S(=O)(=O)O)c3cc(S(=O)(=O)O)cc(S(=O)(=O)O)c23)cc1NC(=O)c1cccc(NC(=O)Nc2cccc(C(=O)Nc3cc(C(=O)Nc4ccc(S(=O)(=O)O)c5cc(S(=O)(=O)O)cc(S(=O)(=O)O)c45)ccc3C)c2)c1 [Suramin]
IL-1β release [8]: increased IL-1β release

O=c1ccn([C@@H]2O[C@H](COP(=O)(O)OP(=O)(O)OP(=O)(O)O)[C@@H](O)[C@H]2O)c(=O)[nH]1 [UTP, Uridine 5′-triphosphate]
ACE2 membrane expression (ACE2 [1]): did not change | ACE2 expression in response to SARS-CoV-2 infection (SARS-CoV-2 [2]): repressed ACE2 down regulation | ACE2 membrane expression (ACE2 [3]): did not change | amount of RdRp and E mRNA (viral replication) (SARS-CoV-2 [4]): strongly reduced the amount of RdRp and E mRNA | replication of SARS-CoV-2 and/or associated cytopathogenic effects (SARS-CoV-2 [4]): strongly blocked the replication of SARS-CoV-2 and/or reduced associated cytopathogenic effects | IRF5 expression ([9]; 10 and 100 μM, 50 ng IFNγ 24 hours, FIG. 1C): decrease of IRFS expression | cytopathogenicity / cytopathogenic effects of SARS-CoV-2 (SARS-CoV-2 [5]): exhibited inhibitory effects on cytopathogenicity | replication of SARS-CoV-2 and/or associated cytopathogenic effects (SARS-CoV-2 [6]): strongly blocked the replication of SARS-CoV-2 and/or reduced associated cytopathogenic effects
